Key:
PI3K [1] = target: T1, PI3K (Homo sapiens, UniProt P42336); assay: Fluorescence polarization assay for PI3K; format: biochemical; settings: PI3 Kinase α; read-out: PI3 Kinase α IC50
T1 construct: PI3 Kinase α IC50; other: PI3 Kinase α; other: PI3 Kinase α isoform, fluorescence polarization
How it was run: (§1)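 Fluorescence-polarization competition readout: after 30–60 min of PIP2/ATP turnover in 1% DMSO, a stop mix with GST-GRP (70 nM) and red probe (10 nM) was added.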

PI3K [2] = target: T2, PI3K (Homo sapiens, UniProt P48736); assay: Fluorescence polarization assay for PI3K; format: biochemical; settings: PI3 Kinase γ; read-out: PI3 Kinase γ IC50
T2 construct: PI3 Kinase γ IC50; other: PI3 Kinase γ; other: PI3 Kinase γ isoform, fluorescence polarization
How it was run: as §1

prostate line LNCap = assay: In vitro cell culture growth assay (MTS), LNCap; format: cell-based; settings: Homo sapiens, LNCaP, 72 h, LNCap cells, three days after drug treatment
How it was run: (§2)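 Inhibitors were added one day after plating, and viable cells were measured 3 days later by MTS conversion (absorbance 490 nm).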

Human mTOR (FLAG-TOR) = target: T3, Human mTOR (FLAG-TOR) (Homo sapiens, UniProt P42345); assay: Human mTOR kinase assay with purified enzyme, DELFIA format; format: biochemical
T3 construct: FLAG
How it was run: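 DELFIA readout: Eu-anti-P(T389)-S6K antibody (40 ng/mL, 1 h) on captured His6-S6K from the stopped reaction. Kinase step used purified FLAG-tagged human mTOR with test compound in HEPES (pH 7.4)/MnCl2/DTT buffer, 2 h at room temperature (linear 1–6 h), terminated by EDTA/EGTA.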

breast line MDA468 = assay: In vitro cell culture growth assay (MTS), MDA468; format: cell-based; settings: Homo sapiens, 72 h, MDA468 cells, three days after drug treatment
How it was run: as §2

T1 sequence (P42336 whole entry, canonical isoform): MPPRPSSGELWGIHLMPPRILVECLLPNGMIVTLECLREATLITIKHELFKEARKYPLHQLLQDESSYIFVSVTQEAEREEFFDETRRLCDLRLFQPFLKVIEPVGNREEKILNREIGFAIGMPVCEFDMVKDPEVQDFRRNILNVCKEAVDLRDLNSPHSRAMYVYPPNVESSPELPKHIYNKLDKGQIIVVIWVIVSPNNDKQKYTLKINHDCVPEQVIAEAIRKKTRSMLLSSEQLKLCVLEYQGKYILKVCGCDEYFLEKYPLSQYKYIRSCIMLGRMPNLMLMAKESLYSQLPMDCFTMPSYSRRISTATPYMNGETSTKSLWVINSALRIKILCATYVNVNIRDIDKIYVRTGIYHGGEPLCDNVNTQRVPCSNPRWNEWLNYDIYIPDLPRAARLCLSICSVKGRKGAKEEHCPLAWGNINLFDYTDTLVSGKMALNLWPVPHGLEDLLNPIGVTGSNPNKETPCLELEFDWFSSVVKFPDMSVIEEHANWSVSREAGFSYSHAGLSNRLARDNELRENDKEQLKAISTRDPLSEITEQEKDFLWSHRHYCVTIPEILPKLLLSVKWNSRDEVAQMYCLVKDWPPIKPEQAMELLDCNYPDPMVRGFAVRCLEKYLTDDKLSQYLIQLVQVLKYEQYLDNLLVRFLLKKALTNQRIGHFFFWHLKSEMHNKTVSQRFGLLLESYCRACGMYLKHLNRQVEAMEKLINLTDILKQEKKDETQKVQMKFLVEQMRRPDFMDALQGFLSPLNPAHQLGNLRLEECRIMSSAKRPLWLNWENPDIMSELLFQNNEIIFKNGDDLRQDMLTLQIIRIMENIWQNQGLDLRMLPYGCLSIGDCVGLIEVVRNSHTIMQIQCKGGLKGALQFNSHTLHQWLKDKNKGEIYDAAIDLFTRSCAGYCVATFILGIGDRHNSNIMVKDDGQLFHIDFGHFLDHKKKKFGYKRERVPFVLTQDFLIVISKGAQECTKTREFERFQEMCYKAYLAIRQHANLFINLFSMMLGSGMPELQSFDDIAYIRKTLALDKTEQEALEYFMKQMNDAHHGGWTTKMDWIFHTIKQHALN
T2 sequence (P48736 whole entry, canonical isoform): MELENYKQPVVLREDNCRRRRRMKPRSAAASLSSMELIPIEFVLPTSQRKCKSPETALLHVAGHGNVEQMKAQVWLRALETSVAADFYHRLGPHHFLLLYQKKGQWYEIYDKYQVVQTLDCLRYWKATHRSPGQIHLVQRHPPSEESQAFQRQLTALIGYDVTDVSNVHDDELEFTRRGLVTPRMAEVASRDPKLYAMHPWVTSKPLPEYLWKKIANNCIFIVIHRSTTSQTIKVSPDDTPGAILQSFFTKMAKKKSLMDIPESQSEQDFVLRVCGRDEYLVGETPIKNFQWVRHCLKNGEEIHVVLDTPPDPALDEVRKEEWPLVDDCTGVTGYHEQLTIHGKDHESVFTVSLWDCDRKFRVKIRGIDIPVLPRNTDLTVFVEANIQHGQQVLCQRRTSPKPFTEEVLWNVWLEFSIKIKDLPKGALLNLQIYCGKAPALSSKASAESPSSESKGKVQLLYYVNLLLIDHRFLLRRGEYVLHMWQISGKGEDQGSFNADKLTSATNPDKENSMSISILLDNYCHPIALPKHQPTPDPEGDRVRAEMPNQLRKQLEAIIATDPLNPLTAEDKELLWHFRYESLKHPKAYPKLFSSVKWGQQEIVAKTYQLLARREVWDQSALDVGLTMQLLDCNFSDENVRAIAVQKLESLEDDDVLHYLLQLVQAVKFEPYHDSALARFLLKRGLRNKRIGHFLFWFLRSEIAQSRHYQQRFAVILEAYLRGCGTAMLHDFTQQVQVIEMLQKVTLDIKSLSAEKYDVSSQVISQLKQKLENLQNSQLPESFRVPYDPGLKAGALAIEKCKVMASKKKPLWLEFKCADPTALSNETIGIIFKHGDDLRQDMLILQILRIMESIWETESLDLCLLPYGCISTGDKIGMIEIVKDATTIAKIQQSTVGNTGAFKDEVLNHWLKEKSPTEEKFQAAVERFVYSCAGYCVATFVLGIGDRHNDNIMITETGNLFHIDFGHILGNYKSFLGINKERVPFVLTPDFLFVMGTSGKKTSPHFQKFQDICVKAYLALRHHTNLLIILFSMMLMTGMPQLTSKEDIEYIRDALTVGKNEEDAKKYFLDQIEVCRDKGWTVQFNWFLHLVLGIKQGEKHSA

Row | SMILES | IC50 (PI3K [1]) [nM] | IC50 (PI3K [2]) [nM] | IC50 (prostate line LNCap) [nM] | IC50 (Human mTOR (FLAG-TOR)) [nM] | IC50 (breast line MDA468) [nM]
1 | CCNC(=O)Nc1ccc(-c2nc(N3CC4CCC(C3)O4)c3cnn(C)c3n2)cc1 [Example 51, 1-ethyl-3-{4-[1-methyl-4-(8-oxa-3-azabicyclo[3.2.1]oct-3-yl)-1H-pyrazolo[3,4-d]pyrimidin-6-yl]phenyl}urea] | 799 | 7910 | 46 | 1.6 | 390
2 | Cn1ncc2c(N3CC4CCC(C3)O4)nc(-c3ccc(NC(=O)NCCF)cc3)nc21 [Example 52, 1-(2-fluoroethyl)-3-{4-[1-methyl-4-(8-oxa-3-azabicyclo[3.2.1]oct-3-yl)-1H-pyrazolo[3,4-d]pyrimidin-6-yl]phenyl}urea] | 877 | 9500 | 100 | 1 | 500
3 | Cn1ncc2c(N3CC4CCC(C3)O4)nc(-c3ccc(NC(=O)Nc4ccccc4)cc3)nc21 [Example 55, 1-{4-[1-methyl-4-(8-oxa-3-azabicyclo[3.2.1]oct-3-yl)-1H-pyrazolo[3,4-d]pyrimidin-6-yl]phenyl}-3-phenylurea] | 74 | 648 | 0.8 | 0.66 | 32
4 | Cn1ncc2c(N3CC4CCC(C3)O4)nc(-c3ccc(NC(=O)Nc4cccnc4)cc3)nc21 [Example 56, 1-{4-[1-methyl-4-(8-oxa-3-azabicyclo[3.2.1]oct-3-yl)-1H-pyrazolo[3,4-d]pyrimidin-6-yl]phenyl}-3-pyridin-3-ylurea] | 227 | 579 | 0.7 | 0.27 | 5
5 | Cn1ncc2c(N3CC4CCC(C3)O4)nc(-c3ccc(NC(=O)Nc4ccncc4)cc3)nc21 [Example 57, 1-{4-[1-methyl-4-(8-oxa-3-azabicyclo[3.2.1]oct-3-yl)-1H-pyrazolo[3,4-d]pyrimidin-6-yl]phenyl}-3-pyridin-4-ylurea] | 162 | 782 | 0.8 | 0.18 | 9
6 | CN(C)CCNC(=O)Nc1ccc(-c2nc(N3CC4CCC(C3)O4)c3cnn(C)c3n2)cc1 [Example 58, 1-[2-(dimethylamino)ethyl]-3-{4-[1-methyl-4-(8-oxa-3-azabicyclo[3.2.1]oct-3-yl)-1H-pyrazolo[3,4-d]pyrimidin-6-yl]phenyl}urea] | 307 | 1120 | 700 | 99 | 2800
7 | CN(C)CCCNC(=O)Nc1ccc(-c2nc(N3CC4CCC(C3)O4)c3cnn(C)c3n2)cc1 [Example 59, 1-[3-(dimethylamino)propyl]-3-{4-[1-methyl-4-(8-oxa-3-azabicyclo[3.2.1]oct-3-yl)-1H-pyrazolo[3,4-d]pyrimidin-6-yl]phenyl}urea] | 1700 | > 10000 | 2900 | 100 | 8800
8 | CC(C)OC(=O)N1CCC(n2ncc3c(N4CC5CCC(C4)O5)nc(-c4ccc(N)cc4)nc32)CC1 [Example 65, isopropyl 4-[6-(4-aminophenyl)-4-(8-oxa-3-azabicyclo[3.2.1]oct-3-yl)-1H-pyrazolo[3,4-d]pyrimidin-1-yl]piperidine-1-carboxylate] | 4630 | > 10000 | 1200 | 46 | 7000
9 | CC(C)OC(=O)N1CCC(n2ncc3c(N4CC5CCC(C4)O5)nc(-c4ccc(NC(=O)NCCF)cc4)nc32)CC1 [Example 68, isopropyl 4-[6-(4-{[(2-fluoroethyl)carbamoyl]amino}phenyl)-4-(8-oxa-3-azabicyclo[3.2.1]oct-3-yl)-1H-pyrazolo[3,4-d]pyrimidin-1-yl]piperidine-1-carboxylate] | 3150 | > 10000 | 18 | 0.27 | 180
10 | CC(C)OC(=O)N1CCC(n2ncc3c(N4CC5CCC(C4)O5)nc(-c4ccc(NC(=O)NCCO)cc4)nc32)CC1 [Example 69, isopropyl 4-[6-(4-{[(2-hydroxyethyl)carbamoyl]amino}phenyl)-4-(8-oxa-3-azabicyclo[3.2.1]oct-3-yl)-1H-pyrazolo[3,4-d]pyrimidin-1-yl]piperidine-1-carboxylate] | 1530 | 11000 | 100 | 0.17 | 195
11 | CC(C)OC(=O)N1CCC(n2ncc3c(N4CC5CCC(C4)O5)nc(-c4ccc(NC(=O)NC5CC5)cc4)nc32)CC1 [Example 70, isopropyl 4-[6-{4-[(cyclopropylcarbamoyl)amino]phenyl}-4-(8-oxa-3-azabicyclo[3.2.1]oct-3-yl)-1H-pyrazolo[3,4-d]pyrimidin-1-yl]piperidine-1-carboxylate] | 924 | 9500 | 3 | 0.44 | 140

Continued, in another order:

Row | IC50 (PI3K [1]) [nM] | IC50 (PI3K [2]) [nM] | IC50 (prostate line LNCap) [nM] | IC50 (Human mTOR (FLAG-TOR)) [nM] | SMILES | IC50 (breast line MDA468) [nM]
12 | 845 | 8820 | 72 | 1.4 | Cn1ncc2c(N3CC4CCC(C3)O4)nc(-c3ccc(NC(=O)NC4CC4)cc3)nc21 [Example 53, 1-cyclopropyl-3-{4-[1-methyl-4-(8-oxa-3-azabicyclo[3.2.1]oct-3-yl)-1H-pyrazolo[3,4-d]pyrimidin-6-yl]phenyl}urea] | 800
13 | 437 | 5790 | 410 | 1.1 | Cn1ncc2c(N3CC4CCC(C3)O4)nc(-c3ccc(NC(=O)NCCO)cc3)nc21 [Example 54, 1-(2-hydroxyethyl)-3-{4-[1-methyl-4-(8-oxa-3-azabicyclo[3.2.1]oct-3-yl)-1H-pyrazolo[3,4-d]pyrimidin-6-yl]phenyl}urea] | 1200
14 | 3320 | > 10000 | 1050 | 28 | COC(=O)Nc1ccc(-c2nc(N3CC4CCC(C3)O4)c3cnn(C)c3n2)cc1 [Example 60, methyl {4-[1-methyl-4-(8-oxa-3-azabicyclo[3.2.1]oct-3-yl)-1H-pyrazolo[3,4-d]pyrimidin-6-yl]phenyl}carbamate] | 6800
15 | 903 | 1840 | 1800 | 90 | Cn1ncc2c(N3CC4CCC(C3)O4)nc(-c3cccc(O)c3)nc21 [Example 61, 3-[1-methyl-4-(8-oxa-3-azabicyclo[3.2.1]oct-3-yl)-1H-pyrazolo[3,4-d]pyrimidin-6-yl]phenol] | 7600
16 | 2020 | > 10000 | 6 | 0.22 | CNC(=O)Nc1ccc(-c2nc(N3CC4CCC(C3)O4)c3cnn(C4CCN(C(=O)OC(C)C)CC4)c3n2)cc1 [Example 66, isopropyl 4-[6-{4-[(methylcarbamoyl)amino]phenyl}-4-(8-oxa-3-azabicyclo[3.2.1]oct-3-yl)-1H-pyrazolo[3,4-d]pyrimidin-1-yl]piperidine-1-carboxylate] | 84
17 | 2460 | 9500 | 17 | 0.23 | CCNC(=O)Nc1ccc(-c2nc(N3CC4CCC(C3)O4)c3cnn(C4CCN(C(=O)OC(C)C)CC4)c3n2)cc1 [Example 67, isopropyl 4-[6-{4-[(ethylcarbamoyl)amino]phenyl}-4-(8-oxa-3-azabicyclo[3.2.1]oct-3-yl)-1H-pyrazolo[3,4-d]pyrimidin-1-yl]piperidine-1-carboxylate] | 150
